Measured values: article PMC9000588 (Molecules, 2022)
Numbered stars: 1 amine (or outer) side, 2 acyl side, 3 side chain; on linkers, the order of the positions; unused ones are H or OH. Bridge positions count the residues as written; N and C are the ends. Ends that are not written are not given here. Peptide text beside a SMILES is read from it. Suc = O=C(CCC(=O)[*:2])[*:1]

Biological target: SARS-CoV-2 spike protein RBD (Severe acute respiratory syndrome coronavirus 2, UniProt P0DTC2)
Assay: biochemical
Type: binding
Conditions: for kon: read-out: Ka; for Binding (Yes/No): pH 7.4

Compound | kon [M⁻¹ s⁻¹] | further results
CSCC[C@H](NC(=O)[C@H](CC(C)C)NC(=O)[C@H](CCCCN)NC(=O)[C@H](CCC(=O)O)NC(=O)[C@H](Cc1ccccc1)NC(=O)[C@H](CC(C)C)NC(=O)[C@H](CC(=O)O)NC(=O)[C@H](CCC(=O)O)NC(=O)[C@H](C)NC(=O)[C@H](CCC(=O)O)NC(=O)[C@H](Cc1c[nH]cn1)NC(=O)[C@H](CC(N)=O)NC(=O)[C@H](Cc1ccccc1)NC(=O)[C@H](CCCCN)NC(=O)CCC(=O)O)C(N)=O [Peptide 4] (Suc-KFNHEAEDLFEKLM-NH2) | 13.9 ± 3.6 | 
KFNHEAEDLFEKLM [Peptide 1] | 4.62 ± 0.45 | 
KFNDEAEDLFKLFEELFEDM-NH2 [Peptide 10] | 6.81 ± 2.41 | 
CSCC[C@@H]1NC(=O)[C@H](CC(C)C)NC(=O)[C@H](CCCCN)NC(=O)[C@H](CCC(=O)O)NC(=O)[C@H](Cc2ccccc2)NC(=O)[C@H](CC(C)C)NC(=O)[C@H](CC(=O)O)NC(=O)[C@H](CCC(=O)O)NC(=O)[C@H](C)NC(=O)[C@H](CCC(=O)O)NC(=O)[C@H](Cc2c[nH]cn2)NC(=O)[C@H](CC(N)=O)NC(=O)[C@H](Cc2ccccc2)NC(=O)[C@H](CCCCN)NC(=O)[C@@H](N)CSSC[C@@H](C(N)=O)NC1=O [Peptide 6] (H-CKFNHEAEDLFEKLMC-NH2; disulfide 1-16) | 6.84 ± 2.46 | 
CC(C)C[C@H](NC(=O)CCC(=O)O)C(=O)N[C@@H](CC(C)C)C(=O)N[C@@H](CCC(=O)O)C(=O)N[C@@H](CCCCN)C(=O)N[C@@H](CC(C)C)C(=O)N[C@@H](CC(C)C)C(=O)N[C@@H](CCC(=O)O)C(=O)N[C@@H](Cc1c[nH]c2ccccc12)C(=O)N[C@@H](CC(C)C)C(=O)N[C@@H](CCC(=O)O)C(N)=O [Peptide 9] (Suc-LLEKLLEWLE-NH2) | 5.83 ± 2.92 | Kd: (1.39 ± 0.16) × 10^−2 M^−1; Binding (Yes/No): Yes
GLFKEALEELWEA-NH2 [Peptide 8] | 5.39 ± 1.31 | 
CSCC[C@H](NC(=O)[C@H](CC(=O)O)NC(=O)[C@H](CCC(=O)O)NC(=O)[C@H](Cc1ccccc1)NC(=O)[C@H](CC(C)C)NC(=O)[C@H](CCC(=O)O)NC(=O)[C@H](CCC(=O)O)NC(=O)[C@H](Cc1ccccc1)NC(=O)[C@H](CC(C)C)NC(=O)[C@H](CCCCN)NC(=O)[C@H](CCC(=O)O)NC(=O)[C@H](Cc1ccccc1)NC(=O)[C@H](CC(C)C)NC(=O)[C@H](CC(=O)O)NC(=O)[C@H](CCC(=O)O)NC(=O)[C@H](C)NC(=O)[C@H](CCC(=O)O)NC(=O)[C@H](Cc1c[nH]cn1)NC(=O)[C@H](CC(N)=O)NC(=O)[C@H](Cc1ccccc1)NC(=O)[C@H](CCCCN)NC(=O)CCC(=O)O)C(N)=O [Peptide 7] (Suc-KFNHEAEDLFEKLFEELFEDM-NH2) | 4.29 ± 0.52 | Kd: (2.09 ± 0.39) × 10^−2 M^−1; Binding (Yes/No): Yes
KFNHEAEDLFEKLM-NH2 [Peptide 2] | 1.15 ± 0.08 | 
CSCC[C@@H]1NC(=O)[C@H](CC(C)C)NC(=O)[C@H](CCCCN)NC(=O)[C@H](CCC(=O)O)NC(=O)[C@H](Cc2ccccc2)NC(=O)[C@H](CC(C)C)NC(=O)[C@H](CC(=O)O)NC(=O)[C@H](CCC(=O)O)NC(=O)[C@H](C)NC(=O)[C@H](CCC(=O)O)NC(=O)[C@H](Cc2c[nH]cn2)NC(=O)[C@H](CC(N)=O)NC(=O)[C@H](Cc2ccccc2)NC(=O)[C@H](CCCCN)NC1=O [Peptide 3] (cyclo(AEDLFEKLMKFNHE)) | 15.1 ± 3.8 | 
MIEEQAKFLDKFNHEAEDLFK-NH2 [Peptide 11] |  | binding to the spike protein RBD at higher concentrations: bound
Ac-KFNHEAEDLFEKLM [Peptide 5] | 0.64 ± 0.09 | 
